Where two headings read alike, the source gives them in different places.
Test system: Sprague-Dawley rats
Test: Clinical chemistry
Format: in vivo, Rattus norvegicus
Parameters: key to Cholesterol, Dose response / Triglyserides, Dose response / Glucose, Dose response / Albumin, Dose response / K, Dose response / Total bilirubin, Dose response: D: significant dose response (for results, see Table 2); T: significant trend
Settings: for CED, Glucose / CED, Potassium / CED-L, Glucose / CED-L, Potassium / CED, Alkaline phosphatase / CED, Chlolesterol / CED, Total Bilirubin / CED-L, Alkaline phosphatase / CED-L, Chlolesterol / CED-L, Total Bilirubin / CED, Albumin / CED-L, Albumin / CED, Total protein / CED, Triglycerides / CED-L, Total protein / CED-L, Triglycerides: adipose tissue concentration based; for Emax: Rattus norvegicus
Protocol: Spectrophotometric methods were used for the determination of serum total calcium, cholesterol, creatinine, glucose, triglycerides and urea. Serum sodium, potassium and chloride concentrations were measured directly by ion selective electrodes. The analyses were performed by a clinical chemistry analyzer (Konelab 30i, ThermoFisher Scientific, Vantaa, Finland). Plasma lactate dehydrogenase (LD) activity was measured according to the recommendations of the International Federation of Clinical Chemistry (IFCC 1994/I) using Konelab 60i clinical chemistry analyzer. Methods and results for liver related parameters (serum alanine aminotransferase [ALT] activity, alkaline phosphatase [ALP] activity, albumin, total protein and total bilirubin are reported separately.
Data were also analyzed using the BMD method, which is based on dose-response modeling of the full data set using a nested family of exponential and Hill models. The analyses were done on data of males and females combined, using sex as a covariate. […] In that case, different Critical Effect Doses (CEDs) and CEDs at the lowest bound of the confidence interval (CED-L) were generated for each sex. If no difference between sexes is detected, a CED and CED-Ls for the combined data is generated. However, this was also done if the curve fits are close, and separate analyses for males and females were then performed manually. CEDs and CED-Ls were calculated at the predefined Critical Effect Size (CES) of 5% (EFSA standard) or 10%.

[1] = females, total dose 0-1700 mg/kg bw
[2] = females, total dose 10 mg/kg bw
[3] = females, total dose 30 mg/kg bw
[4] = females, total dose 100 mg/kg bw
[5] = females, total dose 300 mg/kg bw
[6] = females, total dose 1000 mg/kg bw
[7] = females, total dose 1700 mg/kg bw

In the case of `Clc1cc(Cl)c(-c2cc(Cl)c(Cl)c(Cl)c2Cl)cc1Cl` [PCB 180, 2,2′,3′,4,4′,5,5′-heptachlorobiphenyl], the “CED, Glucose” value (F, CES 5%, model E2) is reported as 4450 µg/g lipid, the “CED, Potassium” value (F, CES 5%, model E2) is reported as 7900 µg/g lipid and the “CED-L, Glucose” value (F, CES 5%, model E2) is reported as 2648 µg/g lipid. The “CED-L, Potassium” value (F, CES 5%, model E2) was 5086 µg/g lipid, the “CED, Alkaline phosphatase” value (F, CES 5%, model E4) was 308 µg/g lipid and the “CED, Chlolesterol” value (F, CES 5%, model E4) was 640 µg/g lipid. The “CED, Total Bilirubin” value (F, CES 5%, model E4) was 19.4 µg/g lipid, the “CED-L, Alkaline phosphatase” value (F, CES 5%, model E4) was 136 µg/g lipid and the “CED-L, Chlolesterol” value (F, CES 5%, model E4) was 387 µg/g lipid. For the same compound, the “CED-L, Total Bilirubin” value (F, CES 5%, model E4) was 3.77 µg/g lipid, the “CED, Glucose” value (F, CES 10%, model E2) was 9140 µg/g lipid and the “CED, Potassium” value (F, CES 10%, model E2) was 16200 µg/g lipid. The “CED-L, Glucose” value (F, CES 10%, model E2) was 5440 µg/g lipid, the “CED-L, Potassium” value (F, CES 10%, model E2) was 10450 µg/g lipid and the “CED, Alkaline phosphatase” value (F, CES 10%, model E4) was 701 µg/g lipid. For the same compound, the “CED, Chlolesterol” value (F, CES 10%, model E4) was 1330 µg/g lipid, the “CED, Total Bilirubin” value (F, CES 10%, model E4) was 48.2 µg/g lipid and the “CED-L, Alkaline phosphatase” value (F, CES 10%, model E4) was 309 µg/g lipid. For the same compound, the “CED-L, Chlolesterol” value (F, CES 10%, model E4) was 813 µg/g lipid, the “CED-L, Total Bilirubin” value (F, CES 10%, model E4) was 8.98 µg/g lipid and the “CED, Albumin” value (M, CES 5%, model E2) was 6750 µg/g lipid. For the same compound, the “CED, Alkaline phosphatase” value (M, CES 5%, model E2) was 2300 µg/g lipid, the “CED, Glucose” value (M, CES 5%, model E2) was 866 µg/g lipid and the “CED-L, Albumin” value (M, CES 5%, model E2) was 4696 µg/g lipid. The “CED-L, Alkaline phosphatase” value (M, CES 5%, model E2) was 1393 µg/g lipid, the “CED-L, Glucose” value (M, CES 5%, model E2) was 632 µg/g lipid and the “CED, Chlolesterol” value (M, CES 5%, model E4) was 177 µg/g lipid. For the same compound, the “CED, Total protein” value (M, CES 5%, model E4) was 1080 µg/g lipid, the “CED, Triglycerides” value (M, CES 5%, model E4) was 12.5 µg/g lipid and the “CED-L, Chlolesterol” value (M, CES 5%, model E4) was 91.4 µg/g lipid. The “CED-L, Total protein” value (M, CES 5%, model E4) was 575 µg/g lipid, the “CED-L, Triglycerides” value (M, CES 5%, model E4) was 7.26 µg/g lipid and the “CED, Albumin” value (M, CES 10%, model E2) was 13200 µg/g lipid. For the same compound, the “CED, Alkaline phosphatase” value (M, CES 10%, model E2) was 4730 µg/g lipid, the “CED, Glucose” value (M, CES 10%, model E2) was 1780 µg/g lipid and the “CED-L, Albumin” value (M, CES 10%, model E2) was 9174 µg/g lipid. For the same compound, the “CED-L, Alkaline phosphatase” value (M, CES 10%, model E2) was 2861 µg/g lipid, the “CED-L, Glucose” value (M, CES 10%, model E2) was 1297 µg/g lipid and the “CED, Chlolesterol” value (M, CES 10%, model E4) was 365 µg/g lipid. For the same compound, the “CED, Total protein” value (M, CES 10%, model E4) was 2970 µg/g lipid, the “CED, Triglycerides” value (M, CES 10%, model E4) was 26.2 µg/g lipid and the “CED-L, Chlolesterol” value (M, CES 10%, model E4) was 189 µg/g lipid. For the same compound, the “CED-L, Total protein” value (M, CES 10%, model E4) was 1629 µg/g lipid, the “CED-L, Triglycerides” value (M, CES 10%, model E4) was 15.2 µg/g lipid and the Emax (F, model E2, controls vs high dose according to the fitted model, read-out: Maximum response, Glucose) was -12.2%. For the same compound, the Emax (F, model E2, controls vs high dose according to the fitted model, read-out: Maximum response, Potassium) was -7.07%, the Emax (F, model E4, controls vs high dose according to the fitted model, read-out: Maximum response, Alkaline phosphatase) was -25.7% and the Emax (F, model E4, controls vs high dose according to the fitted model, read-out: Maximum response, Chlolesterol) was 53.8%. The Emax (F, model E4, controls vs high dose according to the fitted model, read-out: Maximum response, Total Bilirubin) was -18.2%, the Emax (females, controls vs high dose, fitted model, read-out: Alkaline phosphatase, Maximum response) was -25.7% and the Emax (females, controls vs high dose, fitted model, read-out: Chlolesterol, Maximum response) was 54.1%. For the same compound, the Emax (females, controls vs high dose, fitted model, read-out: Glucose, Maximum response) was -12.1%, the Emax (females, controls vs high dose, fitted model, read-out: Potassium, Maximum response) was -7% and the Emax (females, controls vs high dose, fitted model, read-out: Total Bilirubin, Maximum response) was -17.9%. It also gave an Emax (males, controls vs high dose, fitted model, read-out: Albumin, Maximum response) of 5.5%, an Emax (males, controls vs high dose, fitted model, read-out: Alkaline phosphatase, Maximum response) of -14.9% and an Emax (males, controls vs high dose, fitted model, read-out: Chlolesterol, Maximum response) of 80.8%. For the same compound, the Emax (males, controls vs high dose, fitted model, read-out: Glucose, Maximum response) was -35.6%, the Emax (males, controls vs high dose, fitted model, read-out: Total protein, Maximum response) was 14.1% and the Emax (males, controls vs high dose, fitted model, read-out: Triglycerides, Maximum response) was -62.2%. The Emax (model E2, controls vs high dose according to the fitted model, read-out: Maximum response, Albumin) was 5.49%, the Emax (model E2, controls vs high dose according to the fitted model, read-out: Maximum response, Alkaline phosphatase) was -15.4% and the Emax (model E2, controls vs high dose according to the fitted model, read-out: Maximum response, Glucose) was -35.4%. For the same compound, the Emax (model E4, controls vs high dose according to the fitted model, read-out: Maximum response, Chlolesterol) was 81.7%, the Emax (model E4, controls vs high dose according to the fitted model, read-out: Maximum response, Total protein) was 14.2% and the Emax (model E4, controls vs high dose according to the fitted model, read-out: Maximum response, Triglycerides) was -62.5%. The “Cholesterol, Dose response” value [1] was “T”, the “Glucose, Dose response” value [1] was “T” and the “K, Dose response” value [1] was “T”. For the same compound, the “Total bilirubin, Dose response” value [1] was “T”, the Albumin (females, total dose 3 mg/kg bw) was 33.8 g/L and the Cholesterol (females, total dose 3 mg/kg bw) was 3.11 mmol/L. The Cl (females, total dose 3 mg/kg bw) was 97.1 mmol/L, the Creatinine (females, total dose 3 mg/kg bw) was 51.7 µmol/L and the Glucose (females, total dose 3 mg/kg bw) was 13.7 mmol/L. The K (females, total dose 3 mg/kg bw) was 5.59 mmol/L, the Na (females, total dose 3 mg/kg bw) was 142.1 mmol/L and the “Total Ca” value (females, total dose 3 mg/kg bw) was 3.40 mmol/L. For the same compound, the Total bilirubin (females, total dose 3 mg/kg bw) was 1.59 µmol/L, the Triglyserides (females, total dose 3 mg/kg bw) was 0.91 mmol/L and the Urea (females, total dose 3 mg/kg bw) was 9.9 mmol/L. For the same compound, the Albumin [2] was 33.9 g/L, the Cholesterol [2] was 3.35 mmol/L and the Cl [2] was 97.2 mmol/L. For the same compound, the Creatinine [2] was 53.8 µmol/L, the Glucose [2] was 14.4 mmol/L and the K [2] was 5.70 mmol/L. For the same compound, the Na [2] was 143.6 mmol/L, the “Total Ca” value [2] was 3.42 mmol/L and the Total bilirubin [2] was 1.66 µmol/L. For the same compound, the Triglyserides [2] was 0.85 mmol/L, the Urea [2] was 9.4 mmol/L and the Albumin [3] was 32.7 g/L. The Cholesterol [3] was 3.05 mmol/L, the Cl [3] was 97.3 mmol/L and the Creatinine [3] was 48.6 µmol/L. The Glucose [3] was 13.6 mmol/L, the K [3] was 5.55 mmol/L and the Na [3] was 142.7 mmol/L. For the same compound, the “Total Ca” value [3] was 3.46 mmol/L, the Total bilirubin [3] was 1.40 µmol/L and the Triglyserides [3] was 1.19 mmol/L. It also gave a Urea [3] of 9.5 mmol/L, an Albumin [4] of 33.1 g/L and a Cholesterol [4] of 3.54 mmol/L. The Cl [4] was 97.0 mmol/L, the Creatinine [4] was 51.3 µmol/L and the Glucose [4] was 13.8 mmol/L. For the same compound, the K [4] was 5.75 mmol/L, the Na [4] was 142.5 mmol/L and the “Total Ca” value [4] was 3.44 mmol/L. For the same compound, the Total bilirubin [4] was 1.56 µmol/L, the Triglyserides [4] was 0.89 mmol/L and the Urea [4] was 8.6 mmol/L. It also gave an Albumin [5] of 33.5 g/L, a Cholesterol [5] of 3.52 mmol/L and a Cl [5] of 96.8 mmol/L. It also gave a Creatinine [5] of 47.8 µmol/L, a Glucose [5] of 14.0 mmol/L and a K [5] of 5.54 mmol/L. The Na [5] was 142.6 mmol/L, the “Total Ca” value [5] was 3.56 mmol/L and the Total bilirubin [5] was 1.40 µmol/L. For the same compound, the Triglyserides [5] was 1.12 mmol/L, the Urea [5] was 10.1 mmol/L and the Albumin [6] was 33.0 g/L. It also gave a Cholesterol [6] of 4.16 mmol/L, a Cl [6] of 97.2 mmol/L and a Creatinine [6] of 51.9 µmol/L. It also gave a Glucose [6] of 12.6 mmol/L, a K [6] of 5.43 mmol/L and a Na [6] of 142.7 mmol/L. For the same compound, the “Total Ca” value [6] was 3.40 mmol/L, the Total bilirubin [6] was 1.43 µmol/L and the Triglyserides [6] was 0.89 mmol/L. It also gave a Urea [6] of 9.3 mmol/L, an Albumin [7] of 33.3 g/L and a Cholesterol [7] of 4.94 mmol/L. For the same compound, the Cl [7] was 97.7 mmol/L.

Source: paper PMC4138103 (PLoS ONE, 2014)
